This is an account of results in US8492371B2, “Compounds as cannabinoid receptor ligands” (priority 2009, dated 2013).

The target of one assay is T1, human CB2 receptors (Homo sapiens, UniProt P34972).
T1 construct: expressed in transfected cells; host or cells: HEK293
Briefly: Human CB2 radioligand binding assay ([3H]CP-55,940 competition). A digest of the protocol: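 Membranes from HEK293 cells stably expressing human CB2 (5 μg/well) incubated 90 min at 30 °C with 0.5 nM [3H]CP-55,940 and five concentrations of displacer (0.01 nM–10 μM) in pH 7.4 Tris/EDTA/MgCl2 buffer with fatty acid free BSA. Bound radioactivity counted after filtration; nonspecific binding defined with 10 μM unlabeled CP-55,940.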

Another assay has as its target T2, rat CB2 receptors (Rattus norvegicus, UniProt Q9QZN9).
T2 construct: expressed in transfected cells; host or cells: HEK293
T2 sequence (Q9QZN9 1-360): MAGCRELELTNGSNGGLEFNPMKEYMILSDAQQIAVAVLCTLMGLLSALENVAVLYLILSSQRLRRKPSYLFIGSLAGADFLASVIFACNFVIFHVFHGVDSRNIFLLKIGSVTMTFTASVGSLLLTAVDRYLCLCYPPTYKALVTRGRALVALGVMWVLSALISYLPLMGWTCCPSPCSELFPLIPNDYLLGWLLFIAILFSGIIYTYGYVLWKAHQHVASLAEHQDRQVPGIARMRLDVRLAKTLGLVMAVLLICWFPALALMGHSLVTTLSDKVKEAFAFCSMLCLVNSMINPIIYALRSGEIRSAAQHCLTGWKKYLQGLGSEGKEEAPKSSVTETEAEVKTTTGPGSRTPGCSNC
Briefly: Rat CB2 radioligand binding assay ([3H]CP-55,940 competition). Summed up: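 Membranes from HEK293 cells stably expressing rat CB2 (20 μg/well) incubated 45 min at 30 °C with 0.5 nM [3H]CP-55,940 and five competitor concentrations in Tris/EDTA/MgCl2 buffer with 0.5 mg/mL BSA, pH 7.4. Filtration and scintillation counting; nonspecific binding with 10 μM unlabeled CP-55,940.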

Setting [1] is: HEK293 membranes, 0.5 nM [3H]CP-55,940, read-out: human CB2 Ki.

The structures appear in SMILES notation. Read-outs that look alike come from different tables or passages of the source.

T1 sequence (P34972 whole entry): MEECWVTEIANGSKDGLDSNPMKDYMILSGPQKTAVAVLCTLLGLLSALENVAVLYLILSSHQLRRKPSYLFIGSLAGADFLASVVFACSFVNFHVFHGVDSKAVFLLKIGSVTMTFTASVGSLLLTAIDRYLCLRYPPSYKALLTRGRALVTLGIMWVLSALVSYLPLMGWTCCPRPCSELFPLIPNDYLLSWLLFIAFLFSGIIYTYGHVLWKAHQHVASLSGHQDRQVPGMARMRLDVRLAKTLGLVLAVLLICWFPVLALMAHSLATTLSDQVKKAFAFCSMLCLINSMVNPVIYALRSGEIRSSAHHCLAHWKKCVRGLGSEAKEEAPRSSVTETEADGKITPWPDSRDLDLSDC

The Ki is the dissociation constant of the complex between target and ligand, obtained from inhibition or displacement. On to `CCOCCOc1ccc(C(F)(F)F)cc1C(=O)/N=c1\cc(C(C)(C)C)n(C)n1C[C@H]1CCCO1` [Example 31, N-{(3E)-5-tert-butyl-1-methyl-2-[(2R)-tetrahydrofuran-2-ylmethyl]-1,2-dihydro-3H-pyrazol-3-ylidene}-2-(2-ethoxyethoxy)-5-(trifluoromethyl)benzamide], for which the inhibition constant (Ki) at human CB2 receptors worked out at 11 nM; on rat CB2 receptors, 6.2 nM.

Take `Cn1c(C(C)(C)C)c/c(=N\C(=O)c2cc(C(F)(F)F)ccc2CCC(C)(C)O)n1C[C@H]1CCCO1` [Example 101, N-{(3E)-5-tert-butyl-1-methyl-2-[(2R)-tetrahydrofuran-2-ylmethyl]-1,2-dihydro-3H-pyrazol-3-ylidene}-2-(3-hydroxy-3-methylbutyl)-5-(trifluoromethyl)benazmide]: the figures for the inhibition constant (Ki) at human CB2 receptors and on rat CB2 receptors were 49 nM and 34 nM, respectively.

For `COc1c(F)cc(F)cc1C(=O)/N=c1\cc(C(C)(C)C)n(C)n1C[C@H]1CCCO1` [Example 55, N-{(3E)-5-tert-butyl-1-methyl-2-[(2R)-tetrahydrofuran-2-ylmethyl]-1,2-dihydro-3H-pyrazol-3-ylidene}-3,5-difluoro-2-methoxybenzamide], the Ki on human CB2 receptors (setting [1]) amounted to 152 nM; at rat CB2 receptors (HEK293 membranes, 0.5 nM [3H]CP-55,940, read-out: rat CB2 Ki), 143 nM.

`Cn1c(C(C)(C)C)c/c(=N\C(=O)c2cc(OCCF)cc(C(F)(F)F)c2)n1C[C@H]1CCCO1` [Example 105, N-{(3E)-5-tert-butyl-1-methyl-2-[(2R)-tetrahydrofuran-2-ylmethyl]-1,2-dihydro-3H-pyrazol-3-ylidene}-3-(2-fluoroethoxy)-5-(trifluoromethyl)benazmide]: the Ki was determined as 69 nM at human CB2 receptors and 10 nM on rat CB2 receptors.

As to `CC(F)COc1ccc(C(F)(F)F)cc1C(=O)/N=c1\cc(C(C)(C)C)n(C)n1C[C@H]1CCCO1` (stereo partly drawn) [Example 40, N-{(3E)-5-tert-butyl-1-methyl-2-[(2R)-tetrahydrofuran-2-ylmethyl]-1,2-dihydro-3H-pyrazol-3-ylidene}-2-(2-fluoropropoxy)-5-(trifluoromethyl)benzamide], the Ki at human CB2 receptors worked out at 32 nM; at rat CB2 receptors, 22 nM.

As to `Cn1c(C(C)(C)C)c/c(=N\C(=O)c2cc(F)cc(F)c2F)n1C[C@H]1CCCO1` [Example 51, N-{(3E)-5-tert-butyl-1-methyl-2-[(2R)-tetrahydrofuran-2-ylmethyl]-1,2-dihydro-3H-pyrazol-3-ylidene}-2,3,5-trifluorobenzamide], the values for the Ki at human CB2 receptors and at rat CB2 receptors were 68 nM and 67 nM, respectively.

For the compound `CN(C)CCOc1ccc(C(F)(F)F)cc1C(=O)/N=c1\oc(C(C)(C)C)cn1C[C@H]1CCCO1` [Example 108, N-[(2Z)-5-tert-butyl-3-[(2R)-tetrahydrofuran-2-ylmethyl]-1,3-oxazol-2(3 H)-ylidene]-2-[2-(dimethylamino)ethoxy]-5-(trifluoromethyl)benzamide], the inhibitory constant (Ki) on human CB2 receptors came to 148 nM; on rat CB2 receptors, 55 nM.

For `CN1CC[C@H](Oc2ccc(C(F)(F)F)cc2C(=O)/N=c2\sc(C(C)(C)C)nn2C[C@H]2CCCO2)C1` [Example 97, N-[(2Z)-5-tert-butyl-3-[(2R)-tetrahydrofuran-2-ylmethyl]-1,3,4-thiadiazol-2(3 H)-ylidene]-2-{[(3S)-1-methylpyrrolidin-3-yl]oxy}-5-(trifluoromethyl)benazmide], the results for the Ki at human CB2 receptors and at rat CB2 receptors were 63 nM and 46 nM, respectively.

Turning to `CCOC(=O)CCc1ccc(C(F)(F)F)cc1C(=O)/N=c1\cc(C(C)(C)C)n(C)n1C[C@H]1CCCO1` [Example 131, ethyl 3-[2-[({(3E)-5-tert-butyl-1-methyl-2-[(2R)-tetrahydrofuran-2-ylmethyl]-1,2-dihydro-3H-pyrazol-3-ylidene}amino)carbonyl]-4-(trifluoromethyl)phenyl]propanoate], the Ki amounted to 23 nM on human CB2 receptors and 18 nM at rat CB2 receptors.

In the case of `Cn1c(C(C)(C)C)c/c(=N\C(=O)c2cc(Br)cc3c2OCC3)n1C[C@H]1CCCO1` [Example 60, 5-bromo-N-{(3E)-5-tert-butyl-1-methyl-2-[(2R)-tetrahydrofuran-2-ylmethyl]-1,2-dihydro-3H-pyrazol-3-ylidene}-2,3-dihydro-1-benzofuran-7-carboxamide], the Ki came out at 66 nM on human CB2 receptors and 46 nM on rat CB2 receptors.

Take `COC(=O)c1cccc(C(=O)/N=c2\cc(C(C)(C)C)n(C)n2C[C@H]2CCCO2)c1` [Example 115]: the Ki turned out to be 25 nM at human CB2 receptors and 5.4 nM on rat CB2 receptors.

For `CC(C)(C)c1nn(C[C@H]2CCCO2)/c(=N/C(=O)NC2CCCc3ccccc32)s1` (stereo partly drawn) [Example 73, N-[(2Z)-5-tert-butyl-3-[(2R)-tetrahydrofuran-2-ylmethyl]-1,3,4-thiadiazol-2(3 H)-ylidene]-N′-1,2,3,4-tetrahydronaphthalen-1-ylurea], the values for the Ki on human CB2 receptors and on rat CB2 receptors were 45 nM and 8.2 nM, respectively.

For the compound `COC(=O)C12CC3CC(CC(C(=O)/N=c4\cc(C(C)(C)C)n(C)n4C[C@H]4CCCO4)(C3)C1)C2` [Example 118], the figures for the Ki on human CB2 receptors and on rat CB2 receptors were 42 nM and 14 nM, respectively.

`Cn1c(C(C)(C)C)c/c(=N\C(=O)c2cc(C(F)(F)F)ccc2OCC2CC(F)(F)C2)n1C[C@H]1CCCO1` [Example 19, N-{(3E)-5-tert-butyl-1-methyl-2-[(2R)-tetrahydrofuran-2-ylmethyl]-1,2-dihydro-3H-pyrazol-3-ylidene}-2-[(3,3-difluorocyclobutyl)methoxy]-5-(trifluoromethyl)benzamide]: the values for the inhibition constant (Ki) at human CB2 receptors and on rat CB2 receptors were 22 nM and 11 nM, respectively.

With `Cn1c(C(C)(C)C)c/c(=N\C(=O)c2cc(C(F)(F)F)ccc2N)n1C[C@H]1CCCO1` [Example 112, 2-amino-N-{(3E)-5-tert-butyl-1-methyl-2-[(2R)-tetrahydrofuran-2-ylmethyl]-1,2-dihydro-3H-pyrazol-3-ylidene}-5-(trifluoromethyl)benzamide], the Ki at human CB2 receptors turned out to be 3.3 nM; at rat CB2 receptors, 2.4 nM.

Take `COc1ccc(Cl)cc1C(=O)/N=c1\sc(C(C)(C)C(F)(F)F)nn1C[C@H]1CCCO1` [Example 9, 5-chloro-2-methoxy-N-[(2Z)-3-[(2R)-tetrahydrofuran-2-ylmethyl]-5-(2,2,2-trifluoro-1,1-dimethylethyl)-1,3,4-thiadiazol-2(3H)-ylidene]benzamide]: the Ki on human CB2 receptors was 33 nM; at rat CB2 receptors, 1.4 nM.

Turning to `Cn1c(C2(C)CC2)c/c(=N\C(=O)c2cc(C(F)(F)F)ccc2OCC2(O)CCC2)n1C[C@H]1CCCO1` [Example 102, 2-[(1-hydroxycyclobutyl)methoxy]-N-{(3E)-1-methyl-5-(1-methylcyclopropyl)-2-[(2 R)-tetrahydrofuran-2-ylmethyl]-1,2-dihydro-3H-pyrazol-3-ylidene}-5-(trifluoromethyl)benzamide], the Ki on human CB2 receptors worked out at 21 nM; at rat CB2 receptors, 11 nM.

Consider `CC(C)=CCOc1ccc(C(F)(F)F)cc1C(=O)/N=c1\cc(C(C)(C)C)n(C)n1C[C@H]1CCCO1` [Example 93, N-{(3E)-5-tert-butyl-1-methyl-2-[(2R)-tetrahydrofuran-2-ylmethyl]-1,2-dihydro-3H-pyrazol-3-ylidene}-2-[(3-methylbut-2-enyl)oxy]-5-(trifluoromethyl)benzamide], for which the values for the Ki on human CB2 receptors and on rat CB2 receptors were 17 nM and 15 nM, respectively.

Turning to `Cn1c(C(C)(C)C)c/c(=N\C(=O)c2cc(C(F)(F)F)ccc2/C=C/C(C)(C)O)n1C[C@H]1CCCO1` [Example 100, N-{(3E)-5-tert-butyl-1-methyl-2-[(2R)-tetrahydrofuran-2-ylmethyl]-1,2-dihydro-3H-pyrazol-3-ylidene}-2-[(1E)-3-hydroxy-3-methylbut-1-enyl]-5-(trifluoromethyl)benzamide], the Ki came to 3.2 nM on human CB2 receptors and 1.1 nM on rat CB2 receptors.

On to `Cn1c(C(C)(C)C)c/c(=N\C(=O)c2cc(C(F)(F)F)ccc2OCC2(O)CCC2)n1C[C@H]1CCCO1` [Example 44, N-{(3E)-5-tert-butyl-1-methyl-2-[(2R)-tetrahydrofuran-2-ylmethyl]-1,2-dihydro-3H-pyrazol-3-ylidene}-2-[(1-hydroxycyclobutyl)methoxy]-5-(trifluoromethyl)benzamide], for which the figures for the Ki at human CB2 receptors and at rat CB2 receptors were 17 nM and 18 nM, respectively.

In the case of `COc1ccc(C#N)cc1C(=O)/N=c1\cc(C(C)(C)C)n(C)n1C[C@H]1CCCO1` [Example 48], the values for the Ki at human CB2 receptors (setting [1]) and on rat CB2 receptors were 143 nM and 29 nM, respectively.

`CO[C@H]1C[C@@H](COc2ccc(C(F)(F)F)cc2C(=O)/N=c2\cc(C(C)(C)C)n(C)n2C[C@H]2CCCO2)C1` [Example 18]: the Ki at human CB2 receptors came to 51 nM; on rat CB2 receptors it was 99 nM.

As for `Cn1c(C(C)(C)C)c/c(=N\C(=O)c2cc(C(F)(F)F)ccc2NC(=O)OC(C)(C)C)n1C[C@H]1CCCO1` [Example 120, tert-butyl 2-[({(3E)-5-tert-butyl-1-methyl-2-[(2R)-tetrahydrofuran-2-ylmethyl]-1,2-dihydro-3H-pyrazol-3-ylidene}amino)carbonyl]-4-(trifluoromethyl)phenylcarbamate], the inhibition constant Ki on human CB2 receptors came to 1.7 nM; on rat CB2 receptors, 2.1 nM.
